The values below come from patent publication US5843947A, “N-pyridyl carboxamides and derivatives” (priority 1994, dated 1998).

In test [1] the test system is inflammation induced by carrageenan (plantar edema). Kind of test: Anti-inflammatory activity: plantar edema using carrageenan. The settings on record: rat, compounds 10 mg/kg oral 30 min before carrageenan, indomethacin 10 mg/kg. Format: in vivo, Sprague-Dawley rats. The procedure:
The method used is that of plantar edema using carrageenan. The procedure used is as follows: 1% carrageenan in 0.2 ml of […] is administered into the sole of the right foot of Sprague-Dawley rats weighing 250 g on average. The volume of the paw is measured by plethysmography after one hour and after two hours.
The compounds of the invention are administered in a 10 mg/kg oral dose 30 minutes before the administration of carrageenan. A saline solution is injected into the sole of the left foot, which serves as a control.
The compounds of the invention make it possible to reduce the increase in volume of the right foot relative to that of the left foot (Table 1).

Test [2] relates to acute cutaneous inflammation (phorbol ester ear edema). Kind of test: Activity against acute cutaneous inflammation (topical), phorbol ester ear edema. Type of test: in vivo. The following applies: mouse, 6 hours. On the procedure:
Phorbol ester (phorbol 12-myristate 13-acetate) (5 μg) is applied topically to the front and back surfaces of the right ear of the mouse 30 minutes after application of the vehicle (95% ethanol) or of the agent (1 mg). The difference in thickness between the right ear and the left ear (edema) is measured 6 hours after application.
The percentage of inhibition of cutaneous inflammation relative to a group of animals treated topically with 95% ethanol is calculated. The compound of Example 1, at a rate of 1 mg/ear, allows a 63% reduction of the inflammation. Indomethacin, taken as a reference, at a dose of 2.5 mg/ear, allows a 67% reduction of inflammation.

Test [3] deals with arthritis induced by killed Mycobacterium tuberculosis (complete Freund adjuvant). The test is described as follows: Study of an activity of anti-arthritic type in rats (complete Freund adjuvant). The following applies: rat, oral, days 1 to 5; day 18. Type of test: in vivo, Lewis rats. On the procedure: Groups of 5 male or female Lewis rats weighing from 130 to 150 g are used. A suspension of 0.3 mg of killed Mycobacterium tuberculosis in 0.1 cm^3 of mineral oil (complete Freund adjuvant, CFA) is administered into the subplantar region of the right hind foot on day 1. The volumes of the hind feet are measured by water displacement on days 0, 1, 5, 14 and 18. The rats are weighed on days 0 and 18. The test products are suspended in carboxymethylcellulose and administered orally for 5 consecutive days, on days 1 to 5. In parallel, a control group is used in order to eliminate artefacts resulting from the handling of the animals. A group treated with a reference product (hydrocortisone) allows the test to be validated.

In test [4] the test system is chronic inflammation of the ear induced by repeated phorbol ester. The test is described as follows: Curative activity after repeated topical application in chronic inflammation of the ear, repeated phorbol ester (PMA) for 15 days (model of psoriasis). Type of test: in vivo. The settings on record: mouse, 0.5 mg/ear. On the procedure: Phorbol ester (1 μg) is applied topically to the front and back surfaces of the right ear of the mouse on days 0, 2, 4, 7, 9, 11 and 14. The vehicle or the agent is applied topically twice daily, on days 7, 8, 9, 10, 11, 12, 13 and 14, and once on the 15th day. On days 7, 9, 11 and 14 the vehicle or the agent is applied 30 minutes before and after the phorbol ester.
Two parameters are measured
1. Difference in thickness between the right and left ears every day and on days 0, 2, 4, 7, 9, 11 and 14, 6 hours after repeated application of the phorbol ester.
After repeated application of phorbol ester and after 15 days, the thickness reflects not only the presence of an edema and of an infiltration of lymphocyte and monocyte-macrophage neutrophil type cells in the skin tissue (inflammation) but also of an increase in the thickness of the epidermis (epidermal hyperplasia secondary to a proliferation of keratinocytes). […]
The products of the invention, in topical, curative and repeated use, inhibit, between the 8th and 10th days, the chronic inflammation of the right ear (measured, on the one hand, by the difference in thickness between the right ear and the left ear, and, on the other hand, by the difference in weight between the two ears after sacrificing the animal on the 15th day) induced by a repeated application of phorbol ester in mice.

The nature of test [5]: Study of the diuretic activity (urinary volume). Format: in vivo, rats. The following applies: 6 hours.
The subject of test [6] is chronic inflammation of the ear induced by repeated phorbol ester. The following applies: 15 days after repeated application of phorbol ester; cited from earlier work.

In the case of `Cc1cc(C)nc(NC(=O)c2cnccn2)c1`, in test [1], the “Percentage of inhibition, 1 h” value was determined as 55% and the “Percentage of inhibition, 2 h” value is listed as 64%.

Turning to `Cc1cc(C)nc(NC(=O)Cc2cccs2)c1` [Example 1, N-(4,6-DIMETHYL-2-PYRIDYL)-2-THIENYLACETAMIDE], the “reduction of the inflammation” value in test [2] (1 mg/ear) is 63%. For the same compound, the “reduction in the volume of the right hind foot” value in test [3] is on record as 47%. Consider `Cc1nc(N)c(NC(=O)Cc2ccsc2)c(C)c1Br` [Example 17, N-(2-AMINO-5-BROMO-4,6-DIMETHYL-3-PYRIDYL)-3-THIENYLACETAMIDE], for which, in test [4], the “reduction of the difference in thickness between the two ears” value was 60%. Also, in test [4] (ear punches), the “reduction of the weight difference” value came out at 38%. With `Cc1cc(C)nc(NC(=NN)c2cnccn2)c1` [Example 25, N-(4,6-DIMETHYL-2-PYRIDYL)-2-PYRAZINECARBOXAMIDE HYDRAZONE], the “increase of urinary volume (factor relative to an untreated rat)” value in test [5] (3 mg/kg p.o.) stood at 2.8. Consider `COc1ccc2c(c1)c(CC(=O)O)c(C)n2C(=O)c1ccc(Cl)cc1` [Indomethacin, reference compound], for which the “topical activity in the chronic model (in words)” value (shortened to “topical activity”) in test [6] was “topically inactive”. Also, the “reduction of inflammation, reference” value in test [2] (2.5 mg/ear) stood at 67%. Further, in test [1], the “Percentage of inhibition, 1 h” value is 24% and the “Percentage of inhibition, 2 h” value was found to be 64%. Regarding `Cc1cc(C)nc(NC(=O)Cc2cccs2)c1` [drawing 58], in test [1], the “Percentage of inhibition, 1 h” value was 63% and the “Percentage of inhibition, 2 h” value turned out to be 70%. As for `NS(=O)(=O)c1cc(C(=O)O)c(NCc2ccco2)cc1Cl` [furosemide, reference compound], in test [5] (rat, 5 mg/kg p.o.), the “increase of urinary volume (factor), reference” value is 3. Turning to `CN1C(C(=O)Nc2ccccn2)=C(O)c2ccccc2S1(=O)=O` [piroxicam], the “topical activity” value in test [6] was “topically inactive”.

For the compound cyclosporin A, the “topical activity” value in test [6] was “topically active”.
